Data from publication PMC10709440, “High-throughput ligand profile characterization in novel cell lines expressing seven heterologous insect olfactory receptors for the detection of volatile plant biomarkers” (Scientific Reports, 2023).

What was measured:
OR98a = test system: OR98a; set-up: method as in earlier work; conditions: DoOR database value, OR98a; ref DoOR; cited from earlier work
Drosophila OR85b = target: T1, Drosophila OR85b (Drosophila melanogaster, UniProt Q9VHQ7); assay: Calcium ion fluorescence (GCaMP6) assay, OR85b stable HEK293 cell line; format: cell-based; conditions: for OR85b response (VUAA1-normalized) at 1 μM / OR85b response (VUAA1-normalized) at 10 μM / OR85b response (VUAA1-normalized) at 100 μM / Average response: OR85b cell line; for Average response: VUAA1-normalized response, mean of biological replicates
T1 construct: expressed in transfected cells
T1 sequence (Q9VHQ7 1-390): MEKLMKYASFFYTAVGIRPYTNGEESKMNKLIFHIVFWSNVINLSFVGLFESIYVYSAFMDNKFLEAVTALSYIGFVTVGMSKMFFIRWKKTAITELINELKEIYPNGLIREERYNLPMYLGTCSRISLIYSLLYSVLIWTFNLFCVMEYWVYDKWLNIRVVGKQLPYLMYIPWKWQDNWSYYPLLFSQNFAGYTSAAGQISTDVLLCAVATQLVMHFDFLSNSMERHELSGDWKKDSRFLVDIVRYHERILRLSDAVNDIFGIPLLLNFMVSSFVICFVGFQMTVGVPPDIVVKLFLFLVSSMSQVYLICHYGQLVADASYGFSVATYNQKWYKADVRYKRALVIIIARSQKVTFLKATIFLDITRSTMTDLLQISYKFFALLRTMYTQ
T1 sequence (Q9VNB5 1-486 partner): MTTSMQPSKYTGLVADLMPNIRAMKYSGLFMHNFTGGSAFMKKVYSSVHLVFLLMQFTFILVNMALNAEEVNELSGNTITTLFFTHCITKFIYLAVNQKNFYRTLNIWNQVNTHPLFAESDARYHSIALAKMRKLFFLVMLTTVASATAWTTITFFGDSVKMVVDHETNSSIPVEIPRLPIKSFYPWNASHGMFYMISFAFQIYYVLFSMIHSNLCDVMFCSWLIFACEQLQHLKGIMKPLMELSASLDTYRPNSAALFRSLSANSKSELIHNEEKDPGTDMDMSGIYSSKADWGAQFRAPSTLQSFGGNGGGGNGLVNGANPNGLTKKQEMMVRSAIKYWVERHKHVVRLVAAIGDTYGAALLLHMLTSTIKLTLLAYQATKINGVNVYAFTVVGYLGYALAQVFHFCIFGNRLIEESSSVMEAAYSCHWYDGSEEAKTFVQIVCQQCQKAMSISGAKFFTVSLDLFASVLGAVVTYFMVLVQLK
Procedure: These VUAA1 normalized ∆F values were used to compare the different receptors and ligands.
The concentration-dependent effect of the reference ligands on their cognate cell lines was examined in more detail. Twelve different ligand concentrations were measured on each cell line in an overall 0.01 μM to 100 μM concentration range with 5 repetitions with three technical replicates each time.
Twelve thousand to 18,000 cells were plated into each well of a black wall, transparent bottom 384-well microplate (Greiner) 48 h or 72 h before the measurements and were simultaneously treated with 1 μg/mL doxycycline. […] The plate has 24 columns, thus we could record responses in up to eight different cell lines in each plate. On the day of the experiment, the growth medium was replaced with 20 µL assay buffer/well (140 mM NaCl, 5 mM KCl, 2 mM CaCl2, 1 mM MgCl2, 5 mM HEPES-Na, 20 mM glucose, pH 7.3, 340 mOsm). […] Baseline fluorescence (F0) was recorded for 5 s, after which 7 µL VOC buffer (140 mM NaCl, 5 mM KCl, 2 mM CaCl2, 1 mM MgCl2, 5 mM HEPES-Na, 31 mM glucose, 0.1% DMSO, pH 7.3, 340 mOsm) was injected into each well in one row and the fluorescence response was recorded for an additional 30 s, at a rate of one read/sec. VOC solutions (VOC buffer with 4× concentration of the final measured VOC concentration, 9 µL/well was injected) were measured on the same wells in a second round with the same protocol. Each individual concentration of a specific VOC sample was recorded in three wells for the same cell line on the same microplate. The raw data were exported in xls file format, F0 and FMAX values, and the fluorescence intensity changes (∆F) were calculated in Excel (Microsoft) (Supplementary file Data summary.xlsx) using the following equation: ΔF=FMAX-F0/F0 (see also Fig. 1C). On each plate, we recorded the response of each cell line to 50 µM VUAA1. The average of these ∆F values of each cell line were used to calculate the VUAA1-normalized values for the rest of the plate, by dividing VOC response ∆F values by the average VUAA1 response ∆F value of the corresponding OR cell line. Each VOC-OR combination was measured three times as technical replicates. […] The average of these replicates were used as one ∆F and VUAA1-normalized ∆F in the following analysis.
In the next rows we tested the reference VOCs (or other VOCs known to activate the corresponding cell lines), in order to test if all cell lines are responsive. The remaining rows were used to test VOCs with unknown effect.
The recorded FMAX, F0, ∆F, VUAA1-normalized ∆F values, as well as the OR name, the name of the tested sample, and the final concentration for each well were copied into supplementary file Data summary.xlsx, that was used to summarize all the plates recorded. Here, the averages of the measurements were calculated for each receptor-VOC-concentration combination.

OR10a = test system: OR10a; set-up: method as in earlier work; conditions: DoOR database value, OR10a; ref DoOR; cited from earlier work
OR85b = test system: OR85b; set-up: method as in earlier work; conditions: DoOR database value, OR85b; ref DoOR; cited from earlier work
OR49b = test system: OR49b; set-up: method as in earlier work; conditions: DoOR database value, OR49b; ref DoOR; cited from earlier work
[1] = ligand concentration 1 (unit not given), threshold 0.05, below shown as 0
[2] = ligand concentration 10 (unit not given), threshold 0.05, below shown as 0
[3] = ligand concentration 100 (unit not given), threshold 0.05, below shown as 0
[4] = concentration 1, normalized fluorescence change, values below 0.05 threshold given as 0
[5] = concentration 10, normalized fluorescence change, values below 0.05 threshold given as 0
[6] = concentration 100, normalized fluorescence change, values below 0.05 threshold given as 0
[7] = ligand concentration 1 (unit not given), 0.05 threshold, values below shown as 0
[8] = ligand concentration 10 (unit not given), 0.05 threshold, values below shown as 0
[9] = ligand concentration 100 (unit not given), 0.05 threshold, values below shown as 0
[10] = HEK293, read-out: OR85b Average response (VUAA1-normalized)

SMILES: CCCCCCCCC=O [nonanal]
- OR98a DoOR response (OR98a): 0.085
- OR85b response (VUAA1-normalized) at 1 μM (Drosophila OR85b; VOC concentration 1 μM): 0.00
- OR85b response (VUAA1-normalized) at 10 μM (Drosophila OR85b; VOC concentration 10 μM): 0.00
- OR85b response (VUAA1-normalized) at 100 μM (Drosophila OR85b; VOC concentration 100 μM): 0.00
- Average response (Drosophila OR85b; cc. 1 µM): 0.00
- Average response (Drosophila OR85b; cc. 10 µM): 0.00
- Average response (Drosophila OR85b; cc. 100 µM): 0.00
- DF norm AVERAGE OR85b (Drosophila OR85b; [1]): 0
- DF norm AVERAGE OR85b (Drosophila OR85b; [2]): 0
- DF norm AVERAGE OR85b (Drosophila OR85b; [3]): 0
- OR10a DoOR response (OR10a): 0.05
- OR85b DoOR response (OR85b): 0.091
- OR49b DoOR response (OR49b): 0.03

SMILES: Cc1ccc(C)cc1 [p-xylene]
- OR85b response (VUAA1-normalized) at 1 μM (Drosophila OR85b; VOC concentration 1 μM): 0.00
- OR85b response (VUAA1-normalized) at 10 μM (Drosophila OR85b; VOC concentration 10 μM): 0.15
- OR85b response (VUAA1-normalized) at 100 μM (Drosophila OR85b; VOC concentration 100 μM): 0.06
- Average response (Drosophila OR85b; cc. 1 µM): 0.0373
- Average response (Drosophila OR85b; cc. 10 µM): 0.15
- Average response (Drosophila OR85b; cc. 100 µM): 0.06
- DF norm AVERAGE OR85b (Drosophila OR85b; [1]): 0
- DF norm AVERAGE OR85b (Drosophila OR85b; [2]): 0.1515
- DF norm AVERAGE OR85b (Drosophila OR85b; [3]): 0.06066

SMILES: C=C(C)C1CCC2(C)OC2C1 (single isomer, unassigned; (+)) [(+)-limonene oxide]
- Average response (Drosophila OR85b; cc. 1 µM): 0.00
- Average response (Drosophila OR85b; cc. 10 µM): 0.00
- Average response (Drosophila OR85b; cc. 100 µM): 0.00
- OR85b response (VUAA1-normalized response) (Drosophila OR85b; VOC concentration 1 μM): 0.00
- OR85b response (VUAA1-normalized response) (Drosophila OR85b; VOC concentration 10 μM): 0.00
- OR85b response (VUAA1-normalized response) (Drosophila OR85b; VOC concentration 100 μM): 0.00
- DF norm AVERAGE OR85b (Drosophila OR85b; [4]): 0
- DF norm AVERAGE OR85b (Drosophila OR85b; [5]): 0
- DF norm AVERAGE OR85b (Drosophila OR85b; [6]): 0

SMILES: C=C1[C@H]2CC[C@@H]3[C@H]2C(C)(C)CCC[C@]13C [(+)-longifolene]
- Average response (Drosophila OR85b; cc. 1 µM): 0.08
- Average response (Drosophila OR85b; cc. 10 µM): 0.11
- Average response (Drosophila OR85b; cc. 100 µM): 0.05
- OR85b response (VUAA1-normalized response) (Drosophila OR85b; VOC concentration 1 μM): 0.08
- OR85b response (VUAA1-normalized response) (Drosophila OR85b; VOC concentration 10 μM): 0.11
- OR85b response (VUAA1-normalized response) (Drosophila OR85b; VOC concentration 100 μM): 0.00
- DF norm AVERAGE OR85b (Drosophila OR85b; [4]): 0.0834
- DF norm AVERAGE OR85b (Drosophila OR85b; [5]): 0.1092
- DF norm AVERAGE OR85b (Drosophila OR85b; [6]): 0

SMILES: CC/C=C\CCOC(C)=O [z3-hexenyl acetate]
- Average response (Drosophila OR85b; cc. 1 µM): 0.15
- Average response (Drosophila OR85b; cc. 10 µM): 0.00
- Average response (Drosophila OR85b; cc. 100 µM): 0.00
- DF norm AVERAGE OR85b (Drosophila OR85b; [7]): 0.1453
- DF norm AVERAGE OR85b (Drosophila OR85b; [8]): 0
- DF norm AVERAGE OR85b (Drosophila OR85b; [9]): 0

SMILES: Cc1ccccc1 [toluene]
- activation at 1 µM (Drosophila OR85b; [10]): 8%
- activation at 10 µM (Drosophila OR85b; [10]): 7%
- activation at 100 µM (Drosophila OR85b; [10]): 11%
- OR85b response (VUAA1-normalized) at 1 μM (Drosophila OR85b; VOC concentration 1 μM): 0.0843
- OR85b response (VUAA1-normalized) at 10 μM (Drosophila OR85b; VOC concentration 10 μM): 0.07
- OR85b response (VUAA1-normalized) at 100 μM (Drosophila OR85b; VOC concentration 100 μM): 0.11
- Average response (Drosophila OR85b; cc. 1 µM): 0.0843
- Average response (Drosophila OR85b; cc. 10 µM): 0.07
- Average response (Drosophila OR85b; cc. 100 µM): 0.11
- DF norm AVERAGE OR85b (Drosophila OR85b; [7]): 0.08429
- DF norm AVERAGE OR85b (Drosophila OR85b; [8]): 0.067
- DF norm AVERAGE OR85b (Drosophila OR85b; [9]): 0.1125

SMILES: C=Cc1ccccc1 [styrene]
- OR85b response (VUAA1-normalized) at 1 μM (Drosophila OR85b; VOC concentration 1 μM): 0.00
- OR85b response (VUAA1-normalized) at 10 μM (Drosophila OR85b; VOC concentration 10 μM): 0.00
- OR85b response (VUAA1-normalized) at 100 μM (Drosophila OR85b; VOC concentration 100 μM): 0.00
- Average response (Drosophila OR85b; cc. 1 µM): 0.00
- Average response (Drosophila OR85b; cc. 10 µM): 0.00
- Average response (Drosophila OR85b; cc. 100 µM): 0.0181
- DF norm AVERAGE OR85b (Drosophila OR85b; [7]): 0
- DF norm AVERAGE OR85b (Drosophila OR85b; [8]): 0
- DF norm AVERAGE OR85b (Drosophila OR85b; [9]): 0
